Experimental data published in patent publication US9370507B2, “Pyridonyl guanidine F1F0-ATPase inhibitors and therapeutic uses thereof” (Lycera Corporation, priority 2010, dated 2016).

Tests used:
Ramos cells = experiment: Cytotoxicity in Ramos cells; assay type: cell-based; settings: Homo sapiens, read-out: Ramos Cell EC50
Procedure: (§1) The compounds listed in Table 4 were tested for activity against F1F0-ATPase by measuring the ability of the compounds to inhibit ATP synthesis. In addition, the compounds were assessed for cytotoxicity in Ramos cells Inhibition of F1F0-ATPase activity in synthesizing ATP and cytotoxicity in Ramos cells were measured according to the procedures described in K. M. Johnson et al. Chemistry & Biology 2005, 12, 485-496.

F1F0-ATPase = biological target: T1, F1F0-ATPase (Bos taurus, UniProt P13621); experiment: Inhibition of F1F0-ATPase activity in synthesizing ATP; assay type: biochemical; settings: inhibition of ATP synthesis; read-out: ATP Syn IC50
T1 construct: from tissue
Procedure: as §1

SMILES | EC50 (Ramos cells) [µM] | IC50 (F1F0-ATPase) [µM]
Cn1cnc(S(=O)(=O)Nc2cccc(N/C(=N\C(=O)c3ccc(Cl)cc3)NCC(C)(C)C)n2)c1 [Compound A-145] | > 10 | > 10
O=C(/N=C(\Nc1cccc(O)n1)NC1CCCC1)c1ccc(F)c(F)c1 [Compound A-95] | < 10 | < 10
O=C(/N=C(/NCc1ccc(Cl)cc1)Nc1cccc(O)n1)c1ccc(Cl)cc1 [Compound A-76] | < 10 | < 10
CC(C)N/C(=N/C(=O)c1ccc(F)c(F)c1)Nc1cccc(O)n1 [Compound A-107] | > 10 | < 10
O=C(/N=C(\Nc1cccc(O)n1)NC1CCC1)c1ccc(F)c(F)c1 [Compound A-108] | > 10 | < 10
C[C@@H](N/C(=N/C(=O)c1ccc(C(F)(F)F)cc1)Nc1cccc(O)n1)C1CCCCC1 [Compound A-91] | < 10 | < 10
CC1(N/C(=N\C(=O)c2ccc(C(F)(F)F)cc2)Nc2cccc(O)n2)CC1 [Compound A-46] | < 10 | < 10
CC(C)(C)CN/C(=N/C(=O)c1ccc(Cl)cc1)Nc1cccc(NC(=O)C(C)(C)C)n1 [Compound A-139] | > 10 | > 10
O=C(/N=C(/Nc1cc(F)cc(Cl)c1)Nc1cccc(O)n1)c1cccc(C(F)(F)F)c1 [Compound A-22] | < 10 | < 10
O=C(/N=C(/NCc1ccccc1Cl)Nc1cccc(O)n1)c1ccc(Cl)cc1 [Compound A-87] | < 10 | < 10
CCS(=O)(=O)Nc1cccc(N/C(=N\C(=O)c2ccc(C(F)(F)F)cc2)NCc2ccccc2C(F)(F)F)n1 [Compound A-115] | < 10 | < 10
CS(=O)(=O)Nc1cccc(N/C(=N\C(=O)c2ccc(C(F)(F)F)cc2)NCC(F)(F)F)n1 [Compound A-122] | > 10 | < 10
O=C(/N=C(/NCc1ccc(Cl)cc1F)Nc1cccc(O)n1)c1ccc(Cl)cc1 [Compound A-84] | > 10 | < 10
CC(C)(N/C(=N\C(=O)c1ccc(Cl)cc1)Nc1cccc(O)n1)C(F)(F)F [Compound A-57] | < 10 | < 10
CC(C)(C)N/C(=N/C(=O)c1ccc(Cl)cc1)Nc1cccc(NS(=O)(=O)CC(F)(F)F)n1 [Compound A-124] | < 10 | < 10
O=C(/N=C(/NCc1ccccc1Cl)Nc1cccc(O)n1)c1ccc(F)c(F)c1 [Compound A-71] | < 10 | < 10
CCS(=O)(=O)Nc1cccc(N/C(=N\C(=O)c2ccc(Cl)cc2)NCc2ccc(Cl)cc2F)n1 [Compound A-132] | < 10 | < 10
O=C(/N=C(/NCc1ccc(F)cc1Cl)Nc1cccc(O)n1)c1ccc(Cl)cc1 [Compound A-81] | < 10 | < 10
O=C(/N=C(/NCc1ccc(C(F)(F)F)cc1)Nc1cccc(O)n1)c1ccc(Cl)cc1 [Compound A-79] | < 10 | < 10
CC1(N/C(=N\C(=O)c2ccc(Cl)cc2)Nc2cccc(O)n2)CCC1 [Compound A-58] | < 10 | < 10
CC(C)(C)N/C(=N/C(=O)c1ccc(F)c(F)c1)Nc1cccc(NS(=O)(=O)CC(F)(F)F)n1 [Compound A-128] | < 10 | < 10

SMILES | EC50 (Ramos cells) [µM] | IC50 (F1F0-ATPase) [µM]
O=C(/N=C(/Nc1cccc(C(F)(F)F)c1)Nc1cccc(O)n1)c1ccc(F)c(F)c1 [Compound A-3] | < 10 | < 10
O=C(/N=C(\Nc1cccc(O)n1)NC1CCCC1)c1ccc(C(F)(F)F)cc1 [Compound A-89] | < 10 | < 10
CC(C)(C)c1ccccc1N/C(=N/C(=O)c1ccc(F)c(F)c1)Nc1cccc(O)n1 [Compound A-13] | < 10 | < 10
CC1(N/C(=N/C(=O)c2ccc(C(F)(F)F)cc2)Nc2cccc(O)n2)CCCC1 [Compound A-61] | < 10 | < 10
COc1cccc(N/C(=N\C(=O)c2ccc(C(F)(F)F)cc2)NCc2ccc(Cl)c(F)c2)n1 [Compound A-66] | > 10 | > 10
O=C(N=C(Nc1cc(F)cc(Cl)c1)Nc1cccc(NS(=O)(=O)CC(F)(F)F)n1)c1ccc(Cl)cc1 [Compound A-135] | < 10 | < 10
O=C(/N=C(\Nc1cccc(O)n1)NC1CCC(F)(F)CC1)c1ccc(F)c(F)c1 [Compound A-31] | < 10 | < 10
O=C(/N=C(/Nc1cc(F)cc(Cl)c1)Nc1cccc(O)n1)c1cccc(Cl)c1 [Compound A-21] | < 10 | < 10
O=C(N/C(=N\c1cccc(O)n1)Nc1cccc(Cl)c1)c1ccc(C(F)(F)F)cc1 [Compound A-7] | < 10 | < 10
O=C(/N=C(\Nc1cccc(O)n1)NC1CCC(F)(F)CC1)c1ccc(C(F)(F)F)cc1 [Compound A-30] | < 10 | < 10
COc1cccc(N/C(=N\C(=O)c2cccc(C(F)(F)F)c2)Nc2cccc(C(F)(F)F)c2)n1 [Compound A-119] | > 10 | > 10
CC(NC(=NC(=O)c1ccc(C(F)(F)F)cc1)Nc1cccc(O)n1)c1cccc(Cl)c1 (stereo not shown) [Compound A-68] | < 10 | < 10
O=C(/N=C(/Nc1ccc(F)c(Cl)c1)Nc1cccc(O)n1)c1ccc(C(F)(F)F)cc1 [Compound A-5] | < 10 | < 10
CS(=O)(=O)Nc1cccc(N/C(=N\C(=O)c2ccc(F)c(F)c2)Nc2cccc(C(F)(F)F)c2)n1 [Compound A-113] | < 10 | < 10
CS(=O)(=O)Nc1cccc(N/C(=N\C(=O)c2ccc(C(F)(F)F)cc2)Nc2cc(F)cc(Cl)c2)n1 [Compound A-123] | < 10 | < 10
O=C(/N=C(/NCc1ccc(F)c(Cl)c1)Nc1cccc(O)n1)c1ccc(C(F)(F)F)cc1 [Compound A-28] | < 10 | < 10
O=C(/N=C(/Nc1cccc(C(F)(F)F)c1)Nc1cccc(O)n1)c1ccc(Cl)cc1 [Compound A-15] | < 10 | < 10
CC(C)(C)CN/C(=N/C(=O)c1ccc(Cl)cc1)Nc1cccc(NS(=O)(=O)CC(F)(F)F)n1 [Compound A-134] | < 10 | < 10
COCC(C)N/C(=N/C(=O)c1ccc(Cl)cc1)Nc1cccc(O)n1 (stereo not shown) [Compound A-106] | > 10 | > 10
O=C(/N=C(\Nc1cccc(NS(=O)(=O)CC(F)(F)F)n1)NC(C1CC1)C1CC1)c1ccc(Cl)cc1 [Compound A-127] | < 10 | < 10
O=C(/N=C(\Nc1cccc(O)n1)NC1CCOCC1)c1ccc(Cl)cc1 [Compound A-104] | > 10 | > 10

SMILES | EC50 (Ramos cells) [µM] | IC50 (F1F0-ATPase) [µM]
O=C(/N=C(/NCc1cccc(F)c1F)Nc1cccc(O)n1)c1ccc(C(F)(F)F)cc1 [Compound A-86] | < 10 | < 10
O=C(/N=C(/NCc1ccccc1C(F)(F)F)Nc1cccc(O)n1)c1ccc(C(F)(F)F)cc1 [Compound A-32] | < 10 | < 10
O=C(/N=C(\Nc1cccc(O)n1)NC1CCOCC1)c1ccc(F)c(F)c1 [Compound A-98] | > 10 | > 10
C[C@@H](N/C(=N/C(=O)c1ccc(F)c(F)c1)Nc1cccc(O)n1)C1CCCCC1 [Compound A-97] | < 10 | < 10
O=C(/N=C(/NCC(F)(F)F)Nc1cccc(O)n1)c1ccc(C(F)(F)F)cc1 [Compound A-52] | < 10 | < 10
CC(C)(C)CN/C(=N/C(=O)c1ccc(Cl)cc1)Nc1cccc(NS(=O)(=O)c2ccccc2C#N)n1 [Compound A-141] | < 10 | < 10
CC(C)(N/C(=N/C(=O)c1ccc(C(F)(F)F)cc1)Nc1cccc(O)n1)C(F)(F)F [Compound A-51] | < 10 | < 10
O=C(/N=C(/Nc1cc(F)cc(Cl)c1)Nc1cccc(O)n1)c1ccc(C(F)(F)F)cc1 [Compound A-2] | < 10 | < 10
O=C(/N=C(/NCc1c(F)cc(F)cc1F)Nc1cccc(O)n1)c1ccc(C(F)(F)F)cc1 [Compound A-38] | < 10 | < 10
CC(C)(C)N/C(=N\C(=O)c1ccc(Cl)c(F)c1)Nc1cccc(O)n1 [Compound A-44] | < 10 | < 10
CC1(N/C(=N/C(=O)c2ccc(Cl)cc2)Nc2cccc(NS(=O)(=O)CC(F)(F)F)n2)CCC1 [Compound A-126] | < 10 | < 10
O=C(/N=C(/Nc1cccc(Cl)c1)Nc1cccc(O)n1)c1ccc(F)c(F)c1 [Compound A-24] | < 10 | < 10
O=C(/N=C(/Nc1cccc(C(F)(F)F)c1)Nc1cccc(Br)n1)c1cccc(C(F)(F)F)c1 [Compound A-120] | > 10 | > 10
N#Cc1ccccc1S(=O)(=O)Nc1cccc(NC(=NC(=O)c2ccc(Cl)cc2)Nc2cc(F)cc(Cl)c2)n1 [Compound A-142] | < 10 | < 10
Nc1cccc(N/C(=N\C(=O)c2cccc(C(F)(F)F)c2)Nc2cccc(C(F)(F)F)c2)n1 [Compound A-118] | > 10 | > 10
O=C(/N=C(/Nc1cccc(Cl)c1)Nc1cccc(O)n1)c1ccc(Cl)cc1 [Compound A-25] | > 10 | < 10
CS(=O)(=O)Nc1cccc(N/C(=N\C(=O)c2ccc(Cl)c(F)c2)NCc2ccc(F)c(Cl)c2)n1 [Compound A-121] | < 10 | < 10
O=C(/N=C(/NCc1ccccc1C(F)(F)F)Nc1cccc(NS(=O)(=O)CC(F)(F)F)n1)c1ccc(F)c(F)c1 [Compound A-149] | < 10 | < 10
O=C(/N=C(/Nc1cccc(Cl)c1)Nc1cccc(O)n1)c1cccc(Cl)c1 [Compound A-19] | < 10 | < 10
CCOC(=O)Nc1cccc(N/C(=N\C(=O)c2ccc(F)c(F)c2)NCc2ccc(Cl)cc2F)n1 [Compound A-112] | > 10 | < 10
